Several values for one entry are separate records, joined by “and”; a condition that tells them apart may be missing. Identical values can stand only once. Inconclusive results and toxic doses are left out.
Tested on: L1210 leukemia ip in BDF1 mice, survival T/C
Assay: NCI In Vivo Anticancer Drug Screen. Data for tumor model L1210 Leukemia (intraperitoneal) in B6D2F1 (BDF1) mice
Conditions: higher = longer survival
Procedure, shortened: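 In this screen, tumor-bearing mice given compound are compared to those given vehicle, and their survival values are reported as a treated-to-control quotient.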

[1] = endpoint: mean survival time, dose: 100.0 mg/kg/injection, schedule: Q04DX003 (ip), vehicle: Klucel (hydroxypropylcellulose) (HPC)
[2] = endpoint: mean survival time, dose: 100.0 mg/kg/injection, schedule: Q04DX003 (ip), vehicle: saline with Tween-80
[3] = endpoint: mean survival time, dose: 200.0 mg/kg/injection, schedule: Q04DX003 (ip), vehicle: saline with Tween-80

## CO[C@H]1Nc2c(ccc(C)c2O)C(=O)N2C=C(/C=C/C(N)=O)C[C@@H]12
endpoint: mean survival time, dose: 0.05 mg/kg/injection, schedule: Q01DX015 (ip), vehicle: saline
  T/C: 104 % of control
endpoint: mean survival time, dose: 0.08 mg/kg/injection, schedule: Q04DX003 (ip), vehicle: saline with Tween-80
  T/C: 112 % of control
endpoint: mean survival time, dose: 0.1 mg/kg/injection, schedule: Q01DX015 (ip), vehicle: saline
  T/C: 112 % of control
endpoint: mean survival time, dose: 0.16 mg/kg/injection, schedule: Q04DX003 (ip), vehicle: saline with Tween-80
  T/C: 93 % of control
endpoint: mean survival time, dose: 0.2 mg/kg/injection, schedule: Q01DX015 (ip), vehicle: saline
  T/C: 112 % of control
endpoint: mean survival time, dose: 0.21 mg/kg/injection, schedule: Q01DX015 (ip), vehicle: saline
  T/C: 114 % of control
endpoint: mean survival time, dose: 0.25 mg/kg/injection, schedule: Q01DX001 (ip), vehicle: saline
  T/C: 117 % of control
endpoint: mean survival time, dose: 0.36 mg/kg/injection, schedule: Q01DX015 (ip), vehicle: saline
  T/C: 118 % of control
endpoint: mean survival time, dose: 0.4 mg/kg/injection, schedule: Q01DX015 (ip), vehicle: saline
  T/C: 110 % of control
endpoint: mean survival time, dose: 0.5 mg/kg/injection, schedule: Q01DX001 (ip), vehicle: saline
  T/C: 117 % of control
endpoint: mean survival time, dose: 0.6 mg/kg/injection, schedule: Q01DX015 (ip), vehicle: saline
  T/C: 115 % of control and 117 % of control
endpoint: mean survival time, dose: 1.0 mg/kg/injection, schedule: Q01DX015 (ip), vehicle: saline
  T/C: 98 % of control
endpoint: mean survival time, dose: 1.3 mg/kg/injection, schedule: Q01DX001 (ip), vehicle: saline
  T/C: 156 % of control
endpoint: mean survival time, dose: 25.0 micrograms/kg/injection, schedule: Q04DX003 (ip), vehicle: saline
  T/C: 121 % of control
endpoint: mean survival time, dose: 50.0 micrograms/kg/injection, schedule: Q04DX003 (ip), vehicle: saline
  T/C: 102 % of control
endpoint: mean survival time, dose: 100.0 micrograms/kg/injection, schedule: Q04DX003 (ip), vehicle: saline
  T/C: 114 % of control
endpoint: mean survival time, dose: 200.0 micrograms/kg/injection, schedule: Q04DX003 (ip), vehicle: saline
  T/C: 107 % of control

## C[C@H]1C(=O)O[C@@H]2CCN3CC=C(COC(=O)[C@](C)(O)[C@@]1(C)O)[C@H]23
endpoint: mean survival time, dose: 3.13 mg/kg/injection, schedule: Q01DX010 (ip), vehicle: saline
  T/C: 93 % of control and 94 % of control
endpoint: mean survival time, dose: 6.25 mg/kg/injection, schedule: Q01DX009 (ip), vehicle: saline
  T/C: 95 % of control and 104 % of control
endpoint: mean survival time, dose: 6.25 mg/kg/injection, schedule: Q01DX010 (ip), vehicle: saline
  T/C: 96 % of control and 87 % of control
endpoint: mean survival time, dose: 12.5 mg/kg/injection, schedule: Q01DX009 (ip), vehicle: saline
  T/C: 92 % of control and 104 % of control
endpoint: mean survival time, dose: 12.5 mg/kg/injection, schedule: Q01DX010 (ip), vehicle: saline
  T/C: 92 % of control and 93 % of control
endpoint: mean survival time, dose: 17.6 mg/kg/injection, schedule: Q01DX Z (ip), vehicle: methylcellulose (MC)
  T/C: 98 % of control
endpoint: mean survival time, dose: 25.0 mg/kg/injection, schedule: Q01DX009 (ip), vehicle: saline
  T/C: 103 % of control and 104 % of control
endpoint: mean survival time, dose: 25.0 mg/kg/injection, schedule: Q01DX010 (ip), vehicle: saline
  T/C: 92 % of control and 94 % of control
endpoint: mean survival time, dose: 26.8 mg/kg/injection, schedule: Q01DX Z (ip), vehicle: methylcellulose (MC)
  T/C: 101 % of control
endpoint: mean survival time, dose: 40.0 mg/kg/injection, schedule: Q01DX Z (ip), vehicle: methylcellulose (MC)
  T/C: 101 % of control
endpoint: mean survival time, dose: 50.0 mg/kg/injection, schedule: Q01DX009 (ip), vehicle: saline
  T/C: 105 % of control and 121 % of control
endpoint: mean survival time, dose: 60.0 mg/kg/injection, schedule: Q01DX Z (ip), vehicle: methylcellulose (MC)
  T/C: 95 % of control
endpoint: mean survival time, dose: 90.0 mg/kg/injection, schedule: Q01DX Z (ip), vehicle: methylcellulose (MC)
  T/C: 106 % of control
endpoint: mean survival time, dose: 135.0 mg/kg/injection, schedule: Q01DX Z (ip), vehicle: methylcellulose (MC)
  T/C: 111 % of control and 113 % of control
endpoint: mean survival time, dose: 193.0 mg/kg/injection, schedule: Q01DX Z (ip), vehicle: methylcellulose (MC)
  T/C: 108 % of control
endpoint: median survival time, dose: 6.25 mg/kg/injection, schedule: Q01DX009 (ip), vehicle: saline
  T/C: 95 % of control and 100 % of control
endpoint: median survival time, dose: 12.5 mg/kg/injection, schedule: Q01DX009 (ip), vehicle: saline
  T/C: 100 % of control
endpoint: median survival time, dose: 25.0 mg/kg/injection, schedule: Q01DX009 (ip), vehicle: saline
  T/C: 100 % of control
endpoint: median survival time, dose: 50.0 mg/kg/injection, schedule: Q01DX009 (ip), vehicle: saline
  T/C: 100 % of control and 110 % of control

## O=NN(Cc1ccccc1)P(=O)(O)Oc1ccccc1
endpoint: mean survival time, dose: 4.5 mg/kg/injection, schedule: Q01DX001 (ip), vehicle: saline
  T/C: 100 % of control
endpoint: mean survival time, dose: 9.0 mg/kg/injection, schedule: Q01DX001 (ip), vehicle: saline
  T/C: 97 % of control
endpoint: mean survival time, dose: 13.0 mg/kg/injection, schedule: Q01DX001 (ip), vehicle: saline
  T/C: 100 % of control
endpoint: mean survival time, dose: 26.0 mg/kg/injection, schedule: Q01DX001 (ip), vehicle: saline
  T/C: 97 % of control
endpoint: mean survival time, dose: 40.0 mg/kg/injection, schedule: Q01DX001 (ip), vehicle: saline
  T/C: 114 % of control
endpoint: mean survival time, dose: 60.0 mg/kg/injection, schedule: Q01DX001 (ip), vehicle: saline
  T/C: 101 % of control
endpoint: mean survival time, dose: 93.0 mg/kg/injection, schedule: Q01DX001 (ip), vehicle: saline
  T/C: 97 % of control
endpoint: mean survival time, dose: 187.0 mg/kg/injection, schedule: Q01DX001 (ip), vehicle: saline
  T/C: 94 % of control
endpoint: mean survival time, dose: 250.0 mg/kg/injection, schedule: Q01DX001 (ip), vehicle: saline
  T/C: 95 % of control
endpoint: mean survival time, dose: 375.0 mg/kg/injection, schedule: Q01DX001 (ip), vehicle: saline
  T/C: 92 % of control
endpoint: mean survival time, dose: 500.0 mg/kg/injection, schedule: Q01DX001 (ip), vehicle: saline
  T/C: 100 % of control
endpoint: mean survival time, dose: 750.0 mg/kg/injection, schedule: Q01DX001 (ip), vehicle: saline
  T/C: 95 % of control

## CCCCCCCCCCCCCCCCOc1ccc(CC)cc1
[1]
  T/C: 91 % of control

## C/C(=N/OC(=O)N(C)C)c1ccc(Cl)c(Cl)c1
endpoint: mean survival time, dose: 100.0 mg/kg/injection, schedule: Q01DX001 (ip), vehicle: other
  T/C: 96 % of control
endpoint: mean survival time, dose: 200.0 mg/kg/injection, schedule: Q01DX001 (ip), vehicle: other
  T/C: 98 % of control

## CC(=O)C(Cc1ccccc1)(c1ccccc1)c1ccccc1
endpoint: mean survival time, dose: 50.0 mg/kg/injection, schedule: Q01DX001 (ip), vehicle: saline
  T/C: 103 % of control
endpoint: mean survival time, dose: 100.0 mg/kg/injection, schedule: Q01DX001 (ip), vehicle: saline
  T/C: 103 % of control
endpoint: mean survival time, dose: 200.0 mg/kg/injection, schedule: Q01DX001 (ip), vehicle: saline
  T/C: 97 % of control
endpoint: mean survival time, dose: 400.0 mg/kg/injection, schedule: Q01DX001 (ip), vehicle: saline
  T/C: 97 % of control

## CSc1ncnc2c1ncn2-n1cccc1
endpoint: mean survival time, dose: 100.0 mg/kg/injection, schedule: Q01DX001 (ip), vehicle: saline with Tween-80
  T/C: 104 % of control
endpoint: mean survival time, dose: 100.0 mg/kg/injection, schedule: Q01DX009 (ip), vehicle: Klucel (hydroxypropylcellulose) (HPC)
  T/C: 97 % of control
[1]
  T/C: 93 % of control
[2]
  T/C: 103 % of control
endpoint: mean survival time, dose: 200.0 mg/kg/injection, schedule: Q01DX001 (ip), vehicle: saline with Tween-80
  T/C: 106 % of control
endpoint: mean survival time, dose: 200.0 mg/kg/injection, schedule: Q01DX009 (ip), vehicle: Klucel (hydroxypropylcellulose) (HPC)
  T/C: 95 % of control
endpoint: mean survival time, dose: 200.0 mg/kg/injection, schedule: Q04DX003 (ip), vehicle: Klucel (hydroxypropylcellulose) (HPC)
  T/C: 96 % of control
[3]
  T/C: 101 % of control
endpoint: mean survival time, dose: 400.0 mg/kg/injection, schedule: Q01DX001 (ip), vehicle: saline with Tween-80
  T/C: 95 % of control
endpoint: mean survival time, dose: 400.0 mg/kg/injection, schedule: Q01DX009 (ip), vehicle: Klucel (hydroxypropylcellulose) (HPC)
  T/C: 101 % of control
endpoint: mean survival time, dose: 400.0 mg/kg/injection, schedule: Q04DX003 (ip), vehicle: Klucel (hydroxypropylcellulose) (HPC)
  T/C: 98 % of control

## Brc1cccc([Si](c2ccccc2)(c2ccccc2)c2cccc(Br)c2)c1
[2]
  T/C: 98 % of control
[3]
  T/C: 98 % of control
endpoint: mean survival time, dose: 400.0 mg/kg/injection, schedule: Q04DX003 (ip), vehicle: saline with Tween-80
  T/C: 95 % of control

## CCOC(=O)CCC(C)=O
endpoint: mean survival time, dose: 100.0 mg/kg/injection, schedule: Q01DX009 (ip), vehicle: saline
  T/C: 102 % of control
endpoint: mean survival time, dose: 200.0 mg/kg/injection, schedule: Q01DX009 (ip), vehicle: saline
  T/C: 96 % of control
endpoint: mean survival time, dose: 400.0 mg/kg/injection, schedule: Q01DX009 (ip), vehicle: saline
  T/C: 96 % of control

## C1=C\C2CC2CCCC/1 (stereo unspecified)
endpoint: mean survival time, dose: 12.5 mg/kg/injection, schedule: Q01DX005 (ip), vehicle: saline with Tween-80
  T/C: 86 % of control
endpoint: mean survival time, dose: 25.0 mg/kg/injection, schedule: Q01DX005 (ip), vehicle: saline with Tween-80
  T/C: 96 % of control
endpoint: mean survival time, dose: 25.0 mg/kg/injection, schedule: Q01DX009 (ip), vehicle: saline with Tween-80
  T/C: 98 % of control
endpoint: mean survival time, dose: 50.0 mg/kg/injection, schedule: Q01DX005 (ip), vehicle: saline with Tween-80
  T/C: 89 % of control
endpoint: mean survival time, dose: 50.0 mg/kg/injection, schedule: Q01DX009 (ip), vehicle: saline with Tween-80
  T/C: 94 % of control
endpoint: mean survival time, dose: 100.0 mg/kg/injection, schedule: Q01DX009 (ip), vehicle: saline with Tween-80
  T/C: 102 % of control

## COC1=CC(=O)C2=C(C1=O)C1(C)CCCC(C)(COC(C)=O)C1CC2 (stereo unspecified)
endpoint: mean survival time, dose: 200.0 mg/kg/injection, schedule: Q01DX001 (ip), vehicle: carboxymethylcellulose (CMC)
  T/C: 95 % of control
endpoint: mean survival time, dose: 400.0 mg/kg/injection, schedule: Q01DX001 (ip), vehicle: carboxymethylcellulose (CMC)
  T/C: 88 % of control

## CN1CCN(c2ccc3nnc(Cl)n3n2)CC1
endpoint: mean survival time, dose: 50.0 mg/kg/injection, schedule: Q04DX003 (ip), vehicle: saline with Tween-80
  T/C: 97 % of control

— PubChem BioAssay AID248 (DTP/NCI, 2004)
